Each structure is given as a SMILES string. Structures can show the parent of a compound that is named as a salt. A value given as a limit tells only on which side of the number the result lay.

For orientation: IC50 means the midpoint of a concentration-inhibition curve.

The target of this assay is T1, full-length human PKCι (Homo sapiens, UniProt P41743).
T1 construct: Recombinant, full-length human PKCι expressed in Sf21 insect cells is also commercially available; purchased; host or cells: Sf21 insect cells
T1 sequence (P41743 1-596): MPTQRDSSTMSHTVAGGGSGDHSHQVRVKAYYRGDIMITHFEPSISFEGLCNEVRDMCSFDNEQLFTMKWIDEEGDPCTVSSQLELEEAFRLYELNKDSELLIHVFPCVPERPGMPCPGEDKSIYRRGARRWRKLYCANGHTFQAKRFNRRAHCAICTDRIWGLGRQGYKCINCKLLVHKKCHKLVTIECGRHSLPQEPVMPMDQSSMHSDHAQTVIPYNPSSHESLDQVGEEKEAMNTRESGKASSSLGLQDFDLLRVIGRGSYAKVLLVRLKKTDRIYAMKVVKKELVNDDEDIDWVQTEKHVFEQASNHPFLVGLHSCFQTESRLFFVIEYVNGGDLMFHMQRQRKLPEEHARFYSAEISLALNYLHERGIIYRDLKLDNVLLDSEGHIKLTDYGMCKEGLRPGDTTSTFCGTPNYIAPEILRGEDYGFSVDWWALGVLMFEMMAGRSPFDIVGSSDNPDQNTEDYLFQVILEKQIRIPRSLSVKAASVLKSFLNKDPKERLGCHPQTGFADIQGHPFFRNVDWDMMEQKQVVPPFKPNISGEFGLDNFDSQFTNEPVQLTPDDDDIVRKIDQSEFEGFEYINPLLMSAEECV
Briefly: PKCι IC50 IMAP assay, full-length PKCι at 150 μM ATP. The format is biochemical. Particulars: read-out: IC50 in IMAP assay against full length PKCi at 150 μM ATP. In outline:
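Full-length human PKCι from Sf21 cells, typically 15 pM, with 100 nM 5FAM-PKCε pseudosubstrate peptide and 150 μM ATP (5× apparent KM), 60 min at room temperature, 4% DMSO. IMAP fluorescence polarisation read-out; inhibition normalised to no-compound and no-enzyme controls, IC50 from curve fit.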

As for `c1cc(-c2nc(N3CCNCC3)c3c(C4CC4)cncc3n2)cc(Nc2ccc3ccnn3c2)n1` [Example 563, [4-(5-Cyclopropyl-4-piperazin-1-yl-pyrido[3,4-d]pyrimidin-2-yl)-pyridin-2-yl]-pyrazolo[1,5-a]pyridin-6-yl-amine], the IC50 is less than 0.1 µM.

In the case of `COc1cncc2nc(-c3ccnc(Nc4cnn(-c5ccccc5F)c4)c3)nc(N3CCNCC3)c12` [Example 491, [1-(2-Fluoro-phenyl)-1H-pyrazol-4-yl]-[4-(5-methoxy-4-piperazin-1-yl-pyrido[3,4-d]pyrimidin-2-yl)-pyridin-2-yl]-amine], the IC50 is less than 0.1 µM.

Consider `O[C@@H]1CN(c2nc(-c3ccnc4[nH]c(C(F)(F)F)cc34)nc3cncc(C4CC4)c23)CC[C@@H]1O` (racemic) [Example 1234, (+/−)-(cis)-1-[5-Cyclopropyl-2-(2-trifluoromethyl-1H-pyrrolo[2,3-b]pyridin-4-yl)-pyrido[3,4-d]pyrimidin-4-yl]-piperidine-3,4-diol], for which the IC50 fell in the range of 0.1 to 1 µM.

For `Fc1ccc(F)c(Nc2cc(-c3nc(N4CCNCC4)c4c(C5CC5)cncc4n3)ccn2)c1F` [Example 266, [4-(5-Cyclopropyl-4-piperazin-1-yl-pyrido[3,4-d]pyrimidin-2-yl)-pyridin-2-yl]-(2,3,6-trifluoro-phenyl)-amine], the IC50 is less than 0.1 µM.

Consider `O[C@@H]1Cc2ccccc2[C@H]1Nc1cc(-c2nc(N3CCNCC3)c3c(C4CC4)cncc3n2)ccn1` [Example 2143, (1R,2R)-1-[4-(5-Cyclopropyl-4-piperazin-1-yl-pyrido[3,4-d]pyrimidin-2-yl)-pyridin-2-ylamino]-indan-2-ol], for which the IC50 was less than 0.1 µM.

On to `CN1CCN(c2cccc(Nc3cc(-c4nc(N5CCCCC5)c5c(C6CC6)cncc5n4)ccn3)c2)CC1` [Example 710], for which the IC50 was in the range of 0.1 to 1 µM.

For the compound `FC(F)(F)c1ccnc(Nc2cc(-c3nc(N[C@@H]4CCNC4)c4ccncc4n3)ccn2)c1` [Example 350, (R)-Pyrrolidin-3-yl-{2-[2-(4-trifluoromethyl-pyridin-2-ylamino)-pyridin-4-yl]-pyrido[3,4-d]pyrimidin-4-yl}-amine], the IC50 was less than 0.1 µM.

For the compound `COc1ccccc1CC(=O)Nc1cc(-c2nc(N[C@@H]3CCNC3)c3ccncc3n2)ccn1` [Example 336, 2-(2-Methoxy-phenyl)-N-{4-[4-((R)-pyrrolidin-3-ylamino)-pyrido[3,4-d]pyrimidin-2-yl]-pyridin-2-yl}-acetamide], the IC50 was in the range of 0.1 to 1 µM.

Consider `COc1cncc2nc(-c3ccnc(Nc4ccc(C#N)cn4)c3)nc(N[C@@H]3CCNC3)c12` [Example 344, 6-{4-[5-Methoxy-4-((R)-pyrrolidin-3-ylamino)-pyrido[3,4-d]pyrimidin-2-yl]-pyridin-2-ylamino}-nicotinonitrile], for which the IC50 was less than 0.1 µM.

Consider `c1cc(-c2nc(N3CCNCC3)c3c(C4CC4)cncc3n2)cc(NC2CCOCC2)n1` [Example 283, [4-(5-Cyclopropyl-4-piperazin-1-yl-pyrido[3,4-d]pyrimidin-2-yl)-pyridin-2-yl]-(tetrahydro-pyran-4-yl)-amine], for which the IC50 was less than 0.1 µM.

For the compound `COc1cc2nccc(-c3nc(N4CCNCC4)c4c(C5CC5)cncc4n3)c2cc1OC` [Example 579, 5-Cyclopropyl-2-(6,7-dimethoxy-quinolin-4-yl)-4-piperazin-1-yl-pyrido[3,4-d]pyrimidine], the concentration for half-maximal inhibition (IC50) was 10 to 40 µM.

On to `c1cc(-c2nc(N3CCNCC3)c3c(C4CC4)cncc3n2)cc(Nc2nc3ccc(C4CC4)cn3n2)n1` [Example 2012, [4-(5-Cyclopropyl-4-piperazin-1-yl-pyrido[3,4-d]pyrimidin-2-yl)-pyridin-2-yl]-(6-cyclopropyl-[1,2,4]triazolo[1,5-a]pyridin-2-yl)-amine], for which the IC50 is less than 0.1 µM.

`CN(C)CCOc1nc(-c2ccnc(Nc3c(F)cccc3F)c2)nc2cncc(C3CC3)c12` [Example 826, {4-[5-Cyclopropyl-4-(2-dimethylamino-ethoxy)-pyrido[3,4-d]pyrimidin-2-yl]-pyridin-2-yl}-(2,6-difluoro-phenyl)-amine]: the IC50 was 0.1 to 1 µM.

With `Fc1cccnc1-c1cc2c(-c3nc(N4CCNCC4)c4c(C5CCC5)cncc4n3)ccnc2[nH]1` [Example 2180, 5-Cyclobutyl-2-[2-(3-fluoro-pyridin-2-yl)-1H-pyrrolo[2,3-b]pyridin-4-yl]-4-piperazin-1-yl-pyrido[3,4-d]pyrimidine], the IC50 was less than 0.1 µM.

For the compound `O[C@H]1Cc2ccccc2[C@H]1Nc1cc(-c2nc(N3CCNCC3)c3c(C4CC4)cncc3n2)ccn1` [Example 2142, (1R,2S)-1-[4-(5-Cyclopropyl-4-piperazin-1-yl-pyrido[3,4-d]pyrimidin-2-yl)-pyridin-2-ylamino]-indan-2-ol], the IC50 fell in the range of 0.1 to 1 µM.

With `Fc1cccc(F)c1Nc1cc(-c2nc(N3CCCNCC3)c3c(C4CC4)cncc3n2)ccn1` [Example 702, [4-(5-Cyclopropyl-4-[1,4]diazepan-1-yl-pyrido[3,4-d]pyrimidin-2-yl)-pyridin-2-yl]-(2,6-difluoro-phenyl)-amine], the IC50 lay within 0.1 to 1 µM.

`Fc1cccc(Nc2cc(-c3nc(N4CCN[C@@H](C5CC5)C4)c4c(C5CC5)cncc4n3)ccn2)n1` [Example 277, {4-[5-Cyclopropyl-4-((S)-3-cyclopropyl-piperazin-1-yl)-pyrido[3,4-d]pyrimidin-2-yl]-pyridin-2-yl}-(6-fluoro-pyridin-2-yl)-amine]: the IC50 was less than 0.1 µM.

Turning to `CC1(C)CN(c2nc(-c3ccnc4[nH]c5ccccc5c34)nc3cncc(C4CC4)c23)CCN1` [Example 1255, 4-[5-Cyclopropyl-4-(3,3-dimethyl-piperazin-1-yl)-pyrido[3,4-d]pyrimidin-2-yl]-9H-pyrido[2,3-b]indole trifluoroacetic acid salt], the IC50 was less than 0.1 µM.

As to `c1ccc2c(c1)[nH]c1nccc(-c3nc(N4CCNCC4)c4c(C5CC5)cncc4n3)c12` [Example 1253, 4-(5-Cyclopropyl-4-piperazin-1-yl-pyrido[3,4-d]pyrimidin-2-yl)-9H-pyrido[2,3-b]indole trifluoroacetic acid salt], the IC50 is less than 0.1 µM.

`CCNC(=O)C1CCN(c2nc(-c3ccnc(Nc4c(F)cccc4F)c3)nc3cncc(C4CC4)c23)CC1` [Example 723, 1-{5-Cyclopropyl-2-[2-(2,6-difluoro-phenylamino)-pyridin-4-yl]-pyrido[3,4-d]pyrimidin-4-yl}-piperidine-4-carboxylic acid ethylamide]: the IC50 was in the range of 1 to 10 µM.

Turning to `CC1(C)CN(c2nc(-c3ccnc(Nc4nc(F)c(F)cc4F)c3)nc3cncc(C4CC4)c23)CCN1` [Example 815, {4-[5-Cyclopropyl-4-(3,3-dimethyl-piperazin-1-yl)-pyrido[3,4-d]pyrimidin-2-yl]-pyridin-2-yl}-(3,5,6-trifluoro-pyridin-2-yl)-amine], the IC50 was less than 0.1 µM.

Consider `CCc1ccc(F)c(Nc2cc(-c3nc(N4CCNCC4)c4c(C5CC5)cncc4n3)ccn2)c1` [Example 715, [4-(5-Cyclopropyl-4-piperazin-1-yl-pyrido[3,4-d]pyrimidin-2-yl)-pyridin-2-yl]-(5-ethyl-2-fluoro-phenyl)-amine], for which the IC50 was less than 0.1 µM.

Regarding `Clc1cc(-c2nc(N3CCN[C@@H](COCc4ccccc4)C3)c3c(C4CC4)cncc3n2)ccn1` [Example 733, 4-((R)-3-Benzyloxymethyl-piperazin-1-yl)-2-(2-chloro-pyridin-4-yl)-5-cyclopropyl-pyrido[3,4-d]pyrimidine], the IC50 is 1 to 10 µM.

For `NC(=O)Cc1cccc(Nc2cc(-c3nc(N[C@@H]4CCNC4)c4ccncc4n3)ccn2)c1` [Example 316, 2-(3-{4-[4-((R)-Pyrrolidin-3-ylamino)-pyrido[3,4-d]pyrimidin-2-yl]-pyridin-2-ylamino}-phenyl)-acetamide], the IC50 was in the range of 0.1 to 1 µM.

Regarding `Cc1ccc(Nc2cc(-c3nc(N4CCNCC4)c4c(C5CC5)cncc4n3)ccn2)c(C)c1` [Example 573, [4-(5-Cyclopropyl-4-piperazin-1-yl-pyrido[3,4-d]pyrimidin-2-yl)-pyridin-2-yl]-(2,4-dimethyl-phenyl)-amine], the IC50 is less than 0.1 µM.

In the case of `c1ccc2cc(Nc3cc(-c4nc(N5CCNCC5)c5c(C6CC6)cncc5n4)ccn3)ccc2c1` [Example 2050, [4-(5-Cyclopropyl-4-piperazin-1-yl-pyrido[3,4-d]pyrimidin-2-yl)-pyridin-2-yl]-naphthalen-2-yl-amine], the IC50 is less than 0.1 µM.

In the case of `c1cc(-c2nc(N3CCNCC3)c3c(C4CC4)cncc3n2)c2cc(C3CC3)[nH]c2n1` [Example 1223, 5-Cyclopropyl-2-(2-cyclopropyl-1H-pyrrolo[2,3-b]pyridin-4-yl)-4-piperazin-1-yl-pyrido[3,4-d]pyrimidine], the IC50 was less than 0.1 µM.

Regarding `c1cc(-c2nc(N3CCCNCC3)c3ccncc3n2)ccn1` [Example 33, 1-[2-(pyridin-4-yl)-pyrido[3,4-d]-pyrimidin-4-yl]-1,4-diazepane], the concentration for half-maximal inhibition (IC50) was in the range of 1 to 10 µM.

As to `COc1cncc2nc(-c3ccnc(Nc4ccc(C(F)(F)F)nc4)c3)nc(N3CCNCC3)c12` [Example 395, [4-(5-Methoxy-4-piperazin-1-yl-pyrido[3,4-d]pyrimidin-2-yl)-pyridin-2-yl]-(6-trifluoromethyl-pyridin-3-yl)-amine], the IC50 was in the range of 0.1 to 1 µM.
